Patent US20110166121A1 (LG LIFE SCIENCES LTD., priority 2008, published 2011)

Legend:
Human P2Y12 receptor = biological target: T1, Human P2Y12 receptor (Homo sapiens, UniProt Q9H244); assay: Human P2Y12 receptor cell membrane binding assay with [3H] 2-Mes-ADP; conditions: 1 nM [3H] 2-Mes-ADP, membranes of HEK cells expressing P2Y12 receptor; read-out: Binding activity (IC50)
T1 construct: expressed in transfected cells; host or cells: HEK cells
In short: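 Competition binding used 1 nM [3H]2-MeS-ADP on P2Y12-expressing HEK cell membranes for 1 h at room temperature, followed by filtration and scintillation counting.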

[1] = tested on: Human platelet aggregation caused by ADP; assay: Inhibition of ADP-induced platelet aggregation (Mimic-human PRP); type: cell-based; conditions: 20 μM ADP, human platelet concentrate diluted with PPP, absorption at 595 nm
In short: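 Ki came from non-linear sigmoidal fits of inhibition, measured as the 3-min rise in absorbance at 595 nm after 20 μM ADP, relative to 0/20 μM ADP controls. Platelets (3–4×10^8/mL in PPP-diluted human PRP) were exposed to 0.01–30 μM compound for 20 min at room temperature beforehand.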

T1 sequence (Q9H244 whole entry): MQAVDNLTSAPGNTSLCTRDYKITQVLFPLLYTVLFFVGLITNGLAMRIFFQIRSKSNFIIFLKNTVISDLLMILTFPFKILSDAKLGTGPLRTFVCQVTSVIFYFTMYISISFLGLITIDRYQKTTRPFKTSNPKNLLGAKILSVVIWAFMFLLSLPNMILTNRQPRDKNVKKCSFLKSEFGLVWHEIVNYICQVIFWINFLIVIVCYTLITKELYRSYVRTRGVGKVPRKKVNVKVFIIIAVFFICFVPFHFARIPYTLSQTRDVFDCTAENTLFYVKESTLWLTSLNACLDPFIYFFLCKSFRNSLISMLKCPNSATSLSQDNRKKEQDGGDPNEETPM

| SMILES | IC50 (Human P2Y12 receptor) [nM] | Ki [1] [nM] |
| --- | --- | --- |
| CCCc1cc2c(N3CCn4c(nnc4C(F)(F)F)C3)nc(N3CC[C@H](C(=O)O)C3)nc2s1 [Example 1-57, (S)-1-[6-Propyl-4-(3-trifluoromethyl-5,6-dihydro-8H-[1,2,4]triazolo[4,3-a]pyrazin-7-yl)-thieno[2,3-d]pyrimidin-2-yl]-pyrrolidine-3-carboxylic acid] | 15 | 54 |
| CCCc1cc2c(N3CCn4c(nnc4C(F)(F)F)C3)nc(N3CC[C@H](C(=O)OC(C)C)C3)nc2s1 [Example 1-58, (S)-1-[6-Propyl-4-(3-trifluoromethyl-5,6-dihydro-8H-[1,2,4]triazolo[4,3-a]pyrazin-7-yl)-thieno[2,3-d]pyrimidin-2-yl]-pyrrolidine-3-carboxylic acid isopropyl ester] | 190 | 700 |
| CCCc1cc2c(N3CCn4c(nnc4C(F)(F)F)C3)nc(N3CC[C@H](C(=O)OCOC(=O)C(C)(C)C)C3)nc2s1 [Example 1-59, (S)-1-[6-Propyl-4-(3-trifluoromethyl-5,6-dihydro-8H-[1,2,4]triazolo[4,3-a]pyrazin-7-yl)-thieno[2,3-d]pyrimidin-2-yl]-pyrrolidine-3-carboxylic acid 2,2-dimethyl-propionyloxymethyl ester] | 440 | 1450 |
| CCCc1cc2c(N3CCn4c(nnc4C(F)(F)F)C3)nc(N3CC[C@@H](C(=O)O)C3)nc2s1 [Example 1-61, (R)-1-[6-Propyl-4-(3-trifluoromethyl-5,6-dihydro-8H-[1,2,4]triazolo[4,3-a]pyrazin-7-yl)-thieno[2,3-d]pyrimidin-2-yl]-pyrrolidine-3-carboxylic acid] | 11 | 7300 |
| CCCc1cc2c(N3CCn4c(nnc4C(F)(F)F)C3)nc(N3CC[C@@H](C(=O)OC(C)C)C3)nc2s1 [Example 1-62, (R)-1-[6-Propyl-4-(3-trifluoromethyl-5,6-dihydro-8H-[1,2,4]triazolo[4,3-a]pyrazin-7-yl)-thieno[2,3-d]pyrimidin-2-yl]-pyrrolidine-3-carboxylic acid isopropyl ester] | 320 | 200 |
| CCCc1cc2c(N3CCn4c(nnc4C(F)(F)F)C3)nc(N3CC[C@@H](C(=O)OCOC(=O)C(C)(C)C)C3)nc2s1 [Example 1-63, (R)-1-[6-Propyl-4-(3-trifluoromethyl-5,6-dihydro-8H-[1,2,4]triazolo[4,3-a]pyrazin-7-yl)-thieno[2,3-d]pyrimidin-2-yl]-pyrrolidine-3-carboxylic acid 2,2-dimethyl-propionyloxymethyl ester] | 520 | 1000 |
| CCCc1cc2c(N3CCn4c(nnc4C(F)(F)F)C3)nc(N(C)C)nc2s1 [Example 1-64, Dimethyl-[6-propyl-4-(3-trifluoromethyl-5,6-dihydro-8H-[1,2,4]triazolo[4,3-a]pyrazin-7-yl)-thieno[2,3-d]pyrimidin-2-yl]-amine] | 170 | > 4000 |
| CCCc1cc2c(N3CCn4c(nnc4C(F)(F)F)C3)nc(N3CCc4ccccc4C3)nc2s1 [Example 1-65, 2-[6-Propyl-4-(3-trifluoromethyl-5,6-dihydro-8H-[1,2,4]triazolo[4,3-a]pyrazin-7-yl)-thieno[2,3-d]pyrimidin-2-yl]-1,2,3,4-tetrahydro-isoquinoline] | 257 | 260 |
| CCCc1cc2c(N3CCn4c(nnc4C(F)(F)F)C3)nc(N3CCc4cc(OC)c(OC)cc4C3)nc2s1 [Example 1-66, 6,7-Dimethoxy-2-[6-propyl-4-(3-trifluoromethyl-5,6-dihydro-8H-[1,2,4]triazolo[4,3-a]pyrazin-7-yl)-thieno[2,3-d]pyrimidin-2-yl]-1,2,3,4-tetrahydro-isoquinoline] | 200 | 1400 |
| CCCc1cc2c(N3CCn4c(nnc4C(F)(F)F)C3)nc(N3CCc4cc(OC)c(OC)cc4C3CC)nc2s1 (stereo not drawn) [Example 1-67, 1-Ethyl-6,7-dimethoxy-2-[6-propyl-4-(3-trifluoromethyl-5,6-dihydro-8H-[1,2,4]triazolo[4,3-a]pyrazin-7-yl)-thieno[2,3-d]pyrimidin-2-yl]-1,2,3,4-tetrahydro-isoquinoline] | 643 | > 4000 |
| CCCc1cc2c(N3CCn4c(nnc4C(F)(F)F)C3)nc(N3CCNc4ccccc43)nc2s1 [Example 1-68, 1-[6-Propyl-4-(3-trifluoromethyl-5,6-dihydro-8H-[1,2,4]triazolo[4,3-a]pyrazin-7-yl)-thieno[2,3-d]pyrimidin-2-yl]-1,2,3,4-tetrahydro-quinoxaline] | 100 | 430 |
| CCCc1cc2c(N3CCn4c(nnc4C(F)(F)F)C3)nc(N3CCC(N)CC3)nc2s1 [Example 1-69, 1-[6-Propyl-4-(3-trifluoromethyl-5,6-dihydro-8H-[1,2,4]triazolo[4,3-a]pyrazin-7-yl)-thieno[2,3-d]pyrimidin-2-yl]-piperidin-4-ylamine] | 82 | 300 |
| CCCc1cc2c(N3CCn4c(nnc4C(F)(F)F)C3)nc(N3CCCC(N)C3)nc2s1 (stereo not drawn) [Example 1-70, 1-[6-Propyl-4-(3-trifluoromethyl-5,6-dihydro-8H-[1,2,4]triazolo[4,3-a]pyrazin-7-yl)-thieno[2,3-d]pyrimidin-2-yl]-piperidin-3-ylamine] | 167 | 110 |
| CCCc1cc2c(N3CCn4c(nnc4C(F)(F)F)C3)nc(N3CCc4ccccc43)nc2s1 [Example 1-71, 7-[2-(2,3-Dihydro-indol-1-yl)-6-propyl-thieno[2,3-d]pyrimidin-4-yl]-3-trifluoromethyl-5,6,7,8-tetrahydro-[1,2,4]triazolo[4,3-a]pyrazine] | 526 | > 4000 |
| CCCc1cc2c(N3CCn4c(nnc4C(F)(F)F)C3)nc(N3Cc4ccccc4C3)nc2s1 [Example 1-72, 7-[2-(1,3-Dihydro-isoindol-2-yl)-6-propyl-thieno[2,3-d]pyrimidin-4-yl]-3-trifluoromethyl-5,6,7,8-tetrahydro-[1,2,4]triazolo[4,3-a]pyrazine] | 517 | > 4000 |
| CCCc1cc2c(N3CCn4c(nnc4C(F)(F)F)C3)nc(-n3ccc4ccccc43)nc2s1 [Example 1-73, 7-(2-Indol-1-yl-6-propyl-thieno[2,3-d]pyrimidin-4-yl)-3-trifluoromethyl-5,6,7,8-tetrahydro-[1,2,4]triazolo[4,3-a]pyrazine] | 360 | > 4000 |
| CCCc1cc2c(N3CCn4c(nnc4C(F)(F)F)C3)nc(N3CCn4c(nnc4C(F)(F)F)C3)nc2s1 [Example 1-74, 7,7′-(6-propylthieno[2,3-d]pyrimidine-2,4-diyl)bis[3-(trifluoromethyl)-5,6,7,8-tetrahydro[1,2,4]triazolo[4,3-a]pyrazine]] | 33 | 40 |
| CCCc1cc2c(N3CCn4c(nnc4C(F)(F)F)C3)nc(N3CCn4cnnc4C3)nc2s1 [Example 1-75, 7-[2-(5,6-Dihydro-8H-[1,2,4]triazolo[4,3-a]pyrazin-7-yl)-6-propyl-thieno[2,3-d]pyrimidin-4-yl]-3-trifluoromethyl-5,6,7,8-tetrahydro-[1,2,4]triazolo[4,3-a]pyrazine] | 32 | 7 |
| CCCc1cc2c(N3CCn4c(nnc4C(F)(F)F)C3)nc(N3CCn4ccnc4C3)nc2s1 [Example 1-77, 7-[2-(5,6-Dihydro-8H-imidazo[1,2-a]pyrazin-7-yl)-6-propyl-thieno[2,3-d]pyrimidin-4-yl]-3-trifluoromethyl-5,6,7,8-tetrahydro-[1,2,4]triazolo[4,3-a]pyrazine] | 47 | 60 |
| CCCc1cc2c(N3CCn4c(nnc4C(F)(F)F)C3)nc(N3CCn4cc(C(F)(F)F)nc4C3)nc2s1 [Example 1-78, 7-[6-Propyl-2-(2-trifluoromethyl-5,6-dihydro-8H-imidazo[1,2-a]pyrazin-7-)-thieno[2,3-d]pyrimidin-4-yl]-3-trifluoromethyl-5,6,7,8-tetrahydro-[1,2,4]triazolo[4,3-a]pyrazine] | 110 | 200 |
| CCCc1cc2c(N3CCn4c(nnc4C(F)(F)F)C3)nc(N3CCc4sccc4C3)nc2s1 [Example 1-79, 7-[2-(6,7-Dihydro-4H-thieno[3,2-c]pyridin-5-yl)-6-propyl-thieno[2,3-d]pyrimidin-4-yl]-3-trifluoromethyl-5,6,7,8-tetrahydro-[1,2,4]triazolo[4,3-a]pyrazine] | 370 | 1250 |
| CCCc1cc2c(N3CCn4c(nnc4C(F)(F)F)C3)nc(NC(Cc3ccc(O)cc3)C(=O)O)nc2s1 (stereo not drawn) [Example 1-81, 3-(4-Hydroxy-phenyl)-2-[6-propyl-4-(3-trifluoromethyl-5,6-dihydro-8H-[1,2,4]triazolo[4,3-a]pyrazin-7-yl)-thieno[2,3-d]pyrimidin-2-ylamino]-propionic acid] | 320 | 2300 |
| CCCc1cc2c(N3CCn4c(nnc4C(F)(F)F)C3)nc(N3CCN(C(=O)C(F)(F)F)CC3)nc2s1 [Example 1-82, 2,2,2-Trifluoro-1-{4-[6-propyl-4-(3-trifluoromethyl-5,6-dihydro-8H-[1,2,4]triazolo[4,3-a]pyrazin-7-yl)-thieno[2,3-d]pyrimidin-2-yl]-piperazin-1-yl}-ethanone] | 14300 | > 4000 |
| CCCc1cc2c(N3CCn4c(nnc4C(F)(F)F)C3)nc(NC3CNC3)nc2s1 [Example 1-83, Azetidin-3-yl-[6-propyl-4-(3-trifluoromethyl-5,6-dihydro-8H-[1,2,4]triazolo[4,3-a]pyrazin-7-yl)-thieno[2,3-d]pyrimidin-2-yl]-amine] | 320 | 7 |
